Source: paper PMC9629815, “MK256 is a novel CDK8 inhibitor with potent antitumor activity in AML through downregulation of the STAT pathway” (Oncotarget, 2022)

Key:
[1] = test system: SET-2; assay: Cell proliferation assay (CellTiter-Glo, 7-day); format: cell-based; conditions: Homo sapiens, SET-2, 168 h
[2] = test system: p-STATs and MCL-1 in MV-4-11 cells; assay: Western blot of STAT pathway in MV-4-11 cells; format: cell-based; conditions: 48 hrs
Description: For the in vitro western blot study, MV-4-11 and MOLM-14 cells were plated (6-well) at 5 × 10^5 cells per well with medium containing 1% FBS overnight. MK-256 was added in different concentrations at different time points. […] Total protein concentration was measured using the Pierce BCA protein Assay Kit (23227, Thermo Fisher Scientific). Proteins were separated on SDS-PAGE and transferred to Nitrocellulose membrane.

[3] = test system: MCL-1 mRNA in KG-1 cells; assay: Real-time RT-PCR of MCL-1 mRNA; format: cell-based
Description: (§1) Total RNA from the various cell lines was isolated using the RNeasy extraction method (Qiagen, Valencia, CA, USA). First-strand cDNA was synthesized from total RNA by iScript cDNA synthesis (Bio-Rad, Hercules, CA, USA) according to the manufacturer’s instructions. Taqman RT–PCR analysis was performed on cDNA in a 384-well plate, using a Prism 7900HT Real-Time PCR System (Applied Biosystems, Foster City, CA, USA). Primers and Taqman probes were purchased from Applied Biosystems. The expression of target genes MCL1 (Hs03043899_m1, Thermo fisher) and CCL2 (Hs00234140_m1, Thermo fisher) in each sample was assayed in triplicate and normalized to human GUSB for mRNA expression analysis. An unpaired t test was used to calculate statistical significance.

[4] = test system: MCL-1 mRNA in MOLM-14 cells; assay: Real-time RT-PCR of MCL-1 mRNA; format: cell-based
Description: as §1

[5] = MDCK-MDR1 permeability assay; format: in vitro ADME; conditions: dog, MDCK-MDR1
Description: (§2) MDCK-MDR1 cells were plated into 96-well Millipore Millicell-96 plates at 7,500 cells/75 μL/well and incubated for three days at 37°C with 5% CO2. Cells were washed with Hank’s Balanced Salt Solution (HBSS) with 5 mM HEPES for 30 minutes before the experiment began. MK256 was prepared by diluting DMSO stock into HBSS buffer, resulting in a final DMSO concentration of 0.1%. Prior to the experiment, cell monolayer integrity was verified by […] electrical resistance (TEER). The transport experiment was initiated by adding MK256 to the apical (75 μL) or basal (250 μL) side. Transport plates were incubated at 37°C in a humidified incubator with 5% CO2. Samples were taken from the donor and acceptor compartments after one hour and analyzed by liquid chromatography with tandem mass spectrometry (LC/MS/MS). Digoxin was used as reference control. Apparent permeability (Papp) values were calculated using the following equation: Papp = (dQ/dt)/A/C0, where dQ/dt is the initial rate of amount of test compound transported across the cell monolayer, A is the surface area of the filter membrane, and C0 is the initial concentration of the test compound, calculated for each direction using a 4-point calibration curve by LC/MS/MS. Net flux ratio between the two directional transports was calculated by the following equation: Ratio = Papp, B-A/Papp, A-B, where Papp, B-A and Papp, A-B represent the apparent permeability of test compound from the basal-to-apical and apical-to-basal side of the cellular monolayer, respectively. Recovery was calculated based on the compound concentration at the end of the experiment, compared to that at the beginning of the experiment, adjusted for volumes.

[6] = test system: MDCK-MDR1 cells; assay: MDCK-MDR1 permeability assay; format: in vitro ADME; conditions: 5 μM
Description: as §2

[7] = test system: MDR1; assay: MDCK-MDR1 permeability assay; format: in vitro ADME; conditions: dog, MDCK-MDR1, read-out: Efflux Ratio (B-A/A-B)
Description: as §2

[8] = test system: MOLM-14 cells; assay: Cell viability dose-response matrix of MK256 and venetoclax; format: cell-based; conditions: Homo sapiens, Venetoclax 0 nM, 72 hrs, read-out: percentage of cell viability
From the text: Our earlier experiments showing the clearly increasing expression of BCL-2 in the MOLM-14 cell line led us to ask if there was any combinational effect between MK256 and a BCL-2 inhibitor in MOLM-14 cells. To address this question, we chose venetoclax (ABT-199), an FDA-approved BCL-2 inhibitor for AML and CLL, for the combination study. We treated MOLM-14 cells with MK256 and venetoclax at a series of concentration combinations, measured cell viability, and reported the data in a dose-response matrix (Figure 8). […] We also investigated the apoptotic effect of the combination treatment in the MOLM-14 cell line (Figure 10B).
Figure 10 (A) Dose-response matrix of percentage of cell viability of 10,000 MOLM-14 cells after 72 hrs treatment of MK256 and venetoclax at various concentration combinations. (B) Annexin V staining of 10,000 MOLM-14 cells after 72 hrs treatment of MK256 and venetoclax(ABT199) at various concentration combinations. Status of cells are labeled in the graph at the upper left corner. (C) Tumor growth of MOLM-14 xenograft model. Groups of control; ABT199 (25 mg/kg); ABT199 (25 mg/kg) + MK256 (10 mg/kg); ABT199 25 mg/kg + MK256 (50 mg/kg) were shown in straight line, dotted line, 3 dashed line and 2 dashed line, respectively. ^*** P < 0.001. (D) Body weight percentage of MOLM-14 tumor model. […]

SMILES: Nc1nccc2c(Br)cc3cc(C(=O)O)ccc3c12 [MK256]
- IC50 [1]: 212 nM
- expression levels of p-STAT1 (S727), p-STAT3(S727), p-STAT5(S726) ([2]; 30 nM to 1 uM): trend of reduction
- expression of MCL-1 ([2]; 30 nM to 1 uM, dose-dependent): reduced expression
- expression level of MCL-1, p-STAT3(S727) and p-STAT5(S726) ([2]; 1 uM): remained at minimal levels
- expression level of p-STAT1(S727) ([2]; 1 uM): abrogated completely
- expression levels of p-STAT1(Y701) and p-STAT5(Y694) ([2]; high concentrations): unaffected
- mRNA level decreased to ([3]; 300 nM): 25%
- mRNA level decreased to ([3]; 1 uM): 30%
- MCL-1 mRNA level ([4]; 300 nM): barely changed
- MCL-1 mRNA level downregulated by ([4]; 1 uM): ~ 30%
- Papp A→B at 1 h, 5 μM [5]: 57 ×10⁻⁶ cm/s
- Papp B→A at 1 h, 5 μM [5]: 14 ×10⁻⁶ cm/s
- Recover rate (%) [6]: 96%
- efflux ratio at 1 h, 5 µM [7]: 0.2
- viability at 0.0015 µM ([8]; MK256 1.5 nM): 110%
- viability at 0.0046 µM ([8]; MK256 4.6 nM): 101%
- viability at 0.0137 µM ([8]; MK256 13.7 nM): 103%
- viability at 0.0412 µM ([8]; MK256 41.2 nM): 103%
- viability at 0.1235 µM ([8]; MK256 123.5 nM): 100%
- viability at 0.3704 µM ([8]; MK256 370.4 nM): 90%
- viability at 1.1 µM ([8]; MK256 1100 nM): 32%
- viability at 10 µM ([8]; MK256 10000 nM): 0%
- viability at 30 µM ([8]; MK256 30000 nM): 0%
